Data taken from patent US9468690B2, “Decorin gene delivery system and cancer treatment” ([…] CO., LTD., priority 2005, dated 2016).

How the values were obtained:
Format in all cases: cell-based, human
[1] = tested on: U343 cells; assay: TUNEL assay
Method: (§1) U343 (5×10^4), U87MG (5×10^4), C33A (5×10^5), Hep3B (4×10^5) and A549 (5×10^4) cells were plated onto a chamber slide and then infected with adenovirus at an MOI of 0.2-20. Following 24 hr and 48 hr of infection, medium was removed and TUNNEL (terminal deoxynucleotidyl transferase(TdT)-mediated dUTP nick end labeling) assay was carried out according to the manufacturer's instruction of ApopTag kit (Intergen, Purchase, N.Y.). For color development, cells were incubated with peroxidase-conjugated avidin and DAB (diaminobenzidine; DAKO, Carpinteria, Calif.). At the time that color of cells became brown, cells were counterstained with 0.5% methyl green for 10 min and observed under microscope in more than 4 selected fields. The ratio of stained cells to total cells was calculated.

[2] = tested on: Hep3B cells; assay: TUNEL assay
Method: as §1

[3] = tested on: U87MG cells; assay: TUNEL assay
Method: as §1

[4] = tested on: A549 cells; assay: TUNEL assay
Method: as §1

[5] = tested on: C33A cells; assay: TUNEL assay
Method: as §1

[6] = tested on: U343 cells; assay: Annexin V-FITC and PI dual staining, flow cytometry; conditions: FIG. 9b, replication-incompetent adenoviruses
Text: In addition, to examine early apoptosis induced by decorin, several human tumor cell lines were infected with each adenovirus as described above. The infected cells were collected and then processed for Annexin V/PI dual staining according to manufacturer's instruction in the ApoAlert V-FITC (fluorescein isothiocyanate) apoptosis detection kit (Clontech, Palo Alto, Calif.), followed by flow cytometric analysis.

[7] = tested on: U343 cells; assay: Flow cytometry after PI staining, subG1 cell population
Method: (§2) To examine apoptosis induced by decorin, human tumor cell lines, U343, U87MG, C33A, Hep3B and A549 were introduced to 25T culture flasks and 24 hr later, were infected with each adenovirus at MOIs of 0.5-50. […] After 48 hr, 72 hr and 96 hr of infection, the infected cells were collected and fixed in 70% ethanol at 4° C. over 24 hr. Following the fixation, the cells were incubated at 4° C. with a mixture of PI (propidium iodide, 50 μg/ml) and RNase (ribonuclease) for 15 min and the FACS analysis was then performed.

[8] = tested on: Hep3B cells; assay: as above
Method: as §2

[9] = tested on: U87MG cells; assay: as above
Method: as §2

[10] = tested on: A549 cells; assay: as above
Method: as §2

[11] = tested on: C33A cells; assay: as above
Method: as §2

[12] = Table 3 lower part, replication-incompetent adenoviruses
[13] = Table 3 upper part, oncolytic adenoviruses
[14] = Table 1, oncolytic adenoviruses, 48-96 hr post-infection
[15] = Table 2, replication-incompetent adenoviruses

CCc1c2c(nc3ccc(OC(=O)N4CCC(N5CCCCC5)CC4)cc13)-c1cc3c(c(=O)n1C2)COC(=O)[C@]3(O)CC [CPT, camptothecin-11]
Proportion of apoptotic cells (%) [1, 12]: 74.67 ± 12.38%
Proportion of apoptotic cells (%) [1, 13]: 53.5 ± 7.45%
Proportion of apoptotic cells (%) [2, 12]: 75.86 ± 3.11%
Proportion of apoptotic cells (%) [2, 13]: 71.2 ± 15.73%
Proportion of apoptotic cells (%) [3, 12]: 40.00 ± 13.17%
Proportion of apoptotic cells (%) [3, 13]: 83.0 ± 29.29%
Proportion of apoptotic cells (%) [4, 12]: 69.80 ± 8.38%
Proportion of apoptotic cells (%) [4, 13]: 37.5 ± 5.35%
Proportion of apoptotic cells (%) [5, 12]: 70.51 ± 15.90%
Proportion of apoptotic cells (%) [5, 13]: 60.1 ± 25.91%
apoptotic rate (Annexin V-FITC+/PI−) [6]: 19.41%
subG1 cell population (%) [7, 14]: 59.86%
subG1 cell population (%) [7, 15]: 29.02%
subG1 cell population (%) [8, 14]: 5.99%
subG1 cell population (%) [8, 15]: 16.60%
subG1 cell population (%) [9, 14]: 14.78%
subG1 cell population (%) [9, 15]: 12.51%
subG1 cell population (%) [10, 14]: 17.96%
subG1 cell population (%) [10, 15]: 21.59%
subG1 cell population (%) [11, 14]: 26.44%
subG1 cell population (%) [11, 15]: 68.20%
